Assay results published in ChEMBL document CHEMBL1201862, “PubChem BioAssay data set” (2004).
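Each compound was tested at five concentrations against cells in 96-well plates for 48 hours. GI50 marks 50% less growth.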 The source made the active and inactive calls. No stated cut-off is given here; in the data, active = GI50 up to about 1.1 µM and inactive = higher.

What was measured:
Assay in all cases: NCI-60 cell line screen, 48 h
LOX IMVI = tested on: LOX IMVI
SK-OV-3 = tested on: SK-OV-3
NCI-H23 = tested on: NCI-H23
MOLT-4 = tested on: MOLT-4
HT-29 = tested on: HT-29
UACC-257 = tested on: UACC-257
SK-MEL-5 = tested on: SK-MEL-5
A498 = tested on: A498
UACC-62 = tested on: UACC-62
COLO 205 = tested on: COLO 205
SF-268 = tested on: SF-268
786-0 = tested on: 786-0
OVCAR-5 = tested on: OVCAR-5
TK-10 = tested on: TK-10
KM12 = tested on: KM12
HOP-62 = tested on: HOP-62
SW-620 = tested on: SW-620
MCF7 = tested on: MCF7
DU-145 = tested on: DU-145
MDA-MB-231 = tested on: MDA-MB-231

| Compound | GI50 (LOX IMVI) | GI50 (SK-OV-3) | GI50 (NCI-H23) | GI50 (MOLT-4) | GI50 (HT-29) | GI50 (UACC-257) | GI50 (SK-MEL-5) | GI50 (A498) | GI50 (UACC-62) | GI50 (COLO 205) | GI50 (SF-268) | GI50 (786-0) | GI50 (OVCAR-5) | GI50 (TK-10) | GI50 (KM12) | GI50 (HOP-62) | GI50 (SW-620) | GI50 (MCF7) | GI50 (DU-145) | GI50 (MDA-MB-231) |
| --- | --- | --- | --- | --- | --- | --- | --- | --- | --- | --- | --- | --- | --- | --- | --- | --- | --- | --- | --- | --- |
| CC(CC(=O)Nc1ccc(NC(=O)CC(C)/N=N\C(N)=O)cc1)/N=N\C(N)=O (stereo unspecified) | 24.7 µM (inactive) | > 100 µM (inactive) | > 100 µM (inactive) | > 100 µM (inactive) | > 100 µM (inactive) | > 100 µM (inactive) | > 100 µM (inactive) | > 100 µM (inactive) | > 100 µM (inactive) | 34.8 µM (inactive) | > 100 µM (inactive) | > 100 µM (inactive) | > 100 µM (inactive) | > 100 µM (inactive) | > 100 µM (inactive) | > 100 µM (inactive) | – | – | – | – |
| Nc1ccc(C(=O)/C=C/c2ccccc2O)cc1 | > 100 µM (inactive) | > 100 µM (inactive) | > 100 µM (inactive) | > 100 µM (inactive) | > 100 µM (inactive) | > 100 µM (inactive) | > 100 µM (inactive) | > 100 µM (inactive) | > 100 µM (inactive) | > 100 µM (inactive) | > 100 µM (inactive) | > 100 µM (inactive) | > 100 µM (inactive) | > 100 µM (inactive) | > 100 µM (inactive) | > 100 µM (inactive) | > 100 µM (inactive) | – | – | – |
| O=C1CCCC/C1=C1\C(=O)Nc2cc(F)ccc21 | > 100 µM (inactive) | > 100 µM (inactive) | > 100 µM (inactive) | > 100 µM (inactive) | > 100 µM (inactive) | > 100 µM (inactive) | > 100 µM (inactive) | > 100 µM (inactive) | > 100 µM (inactive) | > 100 µM (inactive) | > 100 µM (inactive) | > 100 µM (inactive) | > 100 µM (inactive) | > 100 µM (inactive) | > 100 µM (inactive) | > 100 µM (inactive) | 35.3 µM (inactive) | – | – | – |
| COc1ccc2c(c1)CC[C@@H]1C2CC[C@]2(C)C(=N\O)/C(=N/O)CC12 (stereo partly specified) | 2.43 µM (inactive) | 18.4 µM (inactive) | 10.2 µM (inactive) | 4.79 µM (inactive) | 2.24 µM (inactive) | 16.7 µM (inactive) | 12.7 µM (inactive) | 19.1 µM (inactive) | 13.4 µM (inactive) | 14.3 µM (inactive) | 17.9 µM (inactive) | 17.5 µM (inactive) | 12.4 µM (inactive) | 18.2 µM (inactive) | 11.2 µM (inactive) | 11.7 µM (inactive) | 17.6 µM (inactive) | – | – | – |
| CCOC(=O)NC(=O)c1cn(C2OC(CO)C(O)C2O)c(=O)[nH]c1=O (stereo unspecified) | > 100 µM (inactive) | > 100 µM (inactive) | – | > 100 µM (inactive) | > 100 µM (inactive) | > 100 µM (inactive) | > 100 µM (inactive) | > 100 µM (inactive) | > 100 µM (inactive) | – | > 100 µM (inactive) | > 100 µM (inactive) | > 100 µM (inactive) | – | > 100 µM (inactive) | > 100 µM (inactive) | > 100 µM (inactive) | – | – | – |
| CCOC(=O)c1cn2c([nH]c3ccccc32)c(C#N)c1=O | 25.7 µM (inactive) | > 100 µM (inactive) | > 100 µM (inactive) | > 100 µM (inactive) | > 100 µM (inactive) | > 100 µM (inactive) | > 100 µM (inactive) | > 100 µM (inactive) | > 100 µM (inactive) | 41.6 µM (inactive) | > 100 µM (inactive) | > 100 µM (inactive) | > 100 µM (inactive) | > 100 µM (inactive) | > 100 µM (inactive) | > 100 µM (inactive) | 17.1 µM (inactive) | – | – | – |
| Cc1[nH]c2ccccc2c1C1Cc2ccccc2N1C(=O)/C=C/C=C/c1ccccc1 (stereo unspecified) | > 100 µM (inactive) | > 100 µM (inactive) | > 100 µM (inactive) | 12.7 µM (inactive) | > 100 µM (inactive) | 33 µM (inactive) | > 100 µM (inactive) | > 100 µM (inactive) | > 100 µM (inactive) | > 100 µM (inactive) | – | > 100 µM (inactive) | > 100 µM (inactive) | > 100 µM (inactive) | > 100 µM (inactive) | > 100 µM (inactive) | > 100 µM (inactive) | – | – | – |
| C/C(=N\NS(=O)(=O)c1ccccc1)c1ccc(Cl)c(Cl)c1 | 78.9 µM (inactive) | 67.3 µM (inactive) | 75.3 µM (inactive) | 47.8 µM (inactive) | 44.7 µM (inactive) | 50 µM (inactive) | 42.5 µM (inactive) | 41.8 µM (inactive) | 95.5 µM (inactive) | 26.2 µM (inactive) | > 100 µM (inactive) | 82.2 µM (inactive) | > 100 µM (inactive) | 50.1 µM (inactive) | 71.1 µM (inactive) | 61.5 µM (inactive) | > 100 µM (inactive) | – | – | – |
| CC[C@@]1(C)CCC2c3ccc(O)cc3CC[C@H]2C1C (stereo partly specified) | 17 µM (inactive) | – | 18 µM (inactive) | 14.8 µM (inactive) | 18 µM (inactive) | 15.7 µM (inactive) | 16.9 µM (inactive) | 19.6 µM (inactive) | 14.7 µM (inactive) | 17 µM (inactive) | 15.5 µM (inactive) | 16.2 µM (inactive) | 18.8 µM (inactive) | 19.1 µM (inactive) | 15.8 µM (inactive) | 18.7 µM (inactive) | 17 µM (inactive) | 15.1 µM (inactive) | 16.6 µM (inactive) | – |
| O=C1C2Nc3ccccc3SC2C(=O)N1c1cccc([N+](=O)[O-])c1 (stereo unspecified) | > 71.1 µM (inactive) | > 100 µM (inactive) | 55.8 µM (inactive) | 51.8 µM (inactive) | > 92.3 µM (inactive) | > 100 µM (inactive) | > 100 µM (inactive) | > 100 µM (inactive) | > 100 µM (inactive) | > 100 µM (inactive) | > 100 µM (inactive) | > 100 µM (inactive) | 13.4 µM (inactive) | 35.4 µM (inactive) | 17 µM (inactive) | > 54.8 µM (inactive) | > 100 µM (inactive) | – | – | – |
| CCCN1CN(C(C(=O)N[C@@H]2C(=O)N3C2SC(C)(C)C3C(=O)O)c2ccc(O)cc2)CSC1=S (stereo partly specified) | 97.9 µM (inactive) | > 100 µM (inactive) | > 100 µM (inactive) | > 100 µM (inactive) | > 100 µM (inactive) | > 100 µM (inactive) | > 100 µM (inactive) | > 100 µM (inactive) | > 100 µM (inactive) | 29.8 µM (inactive) | > 100 µM (inactive) | > 100 µM (inactive) | > 100 µM (inactive) | > 100 µM (inactive) | > 100 µM (inactive) | > 100 µM (inactive) | – | – | – | – |
| N/C1=C/C(=O)NC(=O)c2c(c3ccccc3oc2=O)C1 | > 100 µM (inactive) | – | > 100 µM (inactive) | > 100 µM (inactive) | > 100 µM (inactive) | > 100 µM (inactive) | – | > 100 µM (inactive) | > 100 µM (inactive) | > 100 µM (inactive) | > 100 µM (inactive) | > 100 µM (inactive) | > 100 µM (inactive) | > 100 µM (inactive) | > 100 µM (inactive) | > 100 µM (inactive) | > 100 µM (inactive) | – | > 100 µM (inactive) | > 100 µM (inactive) |
| [O-][n+]1c(-c2ccccc2)c2nc3ccccc3nc2c2ccccc21 | > 100 µM (inactive) | > 100 µM (inactive) | > 100 µM (inactive) | > 100 µM (inactive) | > 100 µM (inactive) | > 100 µM (inactive) | > 100 µM (inactive) | > 100 µM (inactive) | > 100 µM (inactive) | > 100 µM (inactive) | > 100 µM (inactive) | > 100 µM (inactive) | > 100 µM (inactive) | > 100 µM (inactive) | > 100 µM (inactive) | > 100 µM (inactive) | > 100 µM (inactive) | – | – | – |
| O=C1/C(=C/c2ccccc2)CN(C(=O)OCC(Cl)(Cl)Cl)C/C1=C\c1ccccc1 | 0.792 µM (active) | 7.48 µM (inactive) | 2.25 µM (inactive) | 2.51 µM (inactive) | 1.6 µM (inactive) | 2.09 µM (inactive) | 1.55 µM (inactive) | 2 µM (inactive) | 2.71 µM (inactive) | 3.73 µM (inactive) | 3.81 µM (inactive) | 2.14 µM (inactive) | 5.52 µM (inactive) | 4.46 µM (inactive) | 1.69 µM (inactive) | – | 1.09 µM (active) | – | – | – |
| CCOc1ccc(NC(=O)CC2SC(Nc3ccc(C)cc3)=NC2=O)cc1 (stereo unspecified) | > 100 µM (inactive) | > 100 µM (inactive) | > 100 µM (inactive) | 35.2 µM (inactive) | > 100 µM (inactive) | > 100 µM (inactive) | > 100 µM (inactive) | > 100 µM (inactive) | > 100 µM (inactive) | > 100 µM (inactive) | > 100 µM (inactive) | > 100 µM (inactive) | > 100 µM (inactive) | > 100 µM (inactive) | > 100 µM (inactive) | > 100 µM (inactive) | > 100 µM (inactive) | – | – | – |
| Cc1cc(N(CCC#N)CCC#N)ccc1/C=C(\NC(=O)/C=C/c1ccccc1)C(=O)N=[N+]=[N-] | > 100 µM (inactive) | 55 µM (inactive) | > 100 µM (inactive) | > 100 µM (inactive) | > 100 µM (inactive) | > 100 µM (inactive) | > 100 µM (inactive) | > 100 µM (inactive) | > 100 µM (inactive) | > 100 µM (inactive) | 99.1 µM (inactive) | 37.5 µM (inactive) | > 100 µM (inactive) | > 100 µM (inactive) | 2.91 µM (inactive) | 32.1 µM (inactive) | > 100 µM (inactive) | – | – | – |
